Data set [1] is described as follows: Cytotoxicity against human Caco2 cells assessed as growth inhibition after 72 hrs by MTT assay. Format: functional, cell-based. The note with it: Caco-2, 72 h. (In general: Formazan colour is commonly taken as a measure of viable cells.)
Data set [2] can be described thus: Cytotoxicity against human HCT116 cells assessed as growth inhibition after 72 hrs by MTT assay. The note with it: HCT-116, 72 h. Format: functional, cell-based.
Data set [3] in a line: Cytotoxicity against human HELF cells assessed as growth inhibition after 72 hrs by MTT assay. Format: cell-based.
A short description of data set [4]: Cytotoxicity against human H460 cells assessed as growth inhibition after 72 hrs by MTT assay. Format: functional, cell-based. The note with it: NCI-H460, 72 h.
Data set [5] is described as follows: Cytotoxicity against human […] cells assessed as growth inhibition after 72 hrs by MTT assay. Format: functional, cell-based.
Data set [6] relates to Caco-2. Briefly: Cytotoxicity against human Caco2 cells assessed as cell viability after 24 to 72 hrs by MTT assay. Format: functional, cell-based.
The test system of the next data set is Staphylococcus aureus. The experiment in a line: Antimicrobial activity against Staphylococcus aureus after 24 hrs using MTT reagent by micro dilution method. Format: functional, organism-based.
For data set [7], the system named is HCT-116. Briefly: Cytotoxicity against human HCT116 cells assessed as cell viability after 24 to 72 hrs by MTT assay. Format: functional, cell-based.
The next data set relates to Candida albicans. Briefly: Antimicrobial activity against Candida albicans by micro dilution method. Format: functional, organism-based.
Data set [8] has as its system HCT-116. Briefly: Cytotoxicity against human HCT116 cells assessed as cell viability at 1.2 to 100 uM by MTT assay. Format: functional, cell-based. Particulars: TDE = time-dependent effect.
In a further data set the test system is Escherichia coli. Briefly: Antimicrobial activity against Escherichia coli after 24 hrs using MTT reagent by micro dilution method. Format: functional, organism-based.
Data set [9] concerns BGC832. The experiment in a line: Cytotoxicity against human […] cells assessed as cell viability after 24 to 72 hrs by MTT assay. Format: functional, cell-based.
Data set [10] deals with HepG2. Briefly: Cytotoxicity against human HepG2 cells assessed as growth inhibition after 72 hrs by MTT assay. Format: functional, cell-based. The note with it: HepG2, 72 h.
Data set [11] concerns NCI-H460. Briefly: Cytotoxicity against human H460 cells assessed as cell viability at 1.2 to 100 uM by MTT assay. Format: functional, cell-based. The note with it: TDE = time-dependent effect.
A further data set has as its system Bacillus subtilis. The experiment in a line: Antimicrobial activity against Bacillus subtilis after 24 hrs using MTT reagent by micro dilution method. Format: functional.
For data set [12], the system named is HepG2. The experiment in a line: Cytotoxicity against human HepG2 cells assessed as cell viability after 24 to 72 hrs by MTT assay. Format: functional, cell-based.
The test system of data set [13] is NCI-H460. The experiment in a line: Cytotoxicity against human H460 cells assessed as cell viability after 24 to 72 hrs by MTT assay. Format: functional, cell-based.
The next data set has as its system Aspergillus niger. Briefly: Antimicrobial activity against Aspergillus niger by micro dilution method. Format: functional, organism-based.
Data set [14] relates to Caco-2. Briefly: Cytotoxicity against human Caco2 cells assessed as cell viability at 1.2 to 100 uM by MTT assay. Particulars: TDE = time-dependent effect. Format: functional, cell-based.
The subject of data set [15] is BGC832. The experiment in a line: Cytotoxicity against human […] cells assessed as cell viability at 1.2 to 100 uM by MTT assay. Format: functional, cell-based. The note with it: TDE = time-dependent effect.
Data set [16] has as its system HepG2. Briefly: Cytotoxicity against human HepG2 cells assessed as cell viability at 1.2 to 100 uM by MTT assay. Format: functional, cell-based. Particulars: TDE = time-dependent effect.
The nature of data set [17]: Acute toxicity in ip dosed mouse. Format: organism-based. Particulars: in vivo.

≈ marks a conversion by molar mass, not a printed value. Calls of active or inactive are those of the source. The calls are words filed in the database; no cut-off is given here.

By IC50 is commonly meant the concentration needed to halve the response being measured. By MIC is commonly meant the lowest concentration that inhibits growth of the organism. A high value points to a need for much substance. One may read the LD50 as the dose at which mortality reaches 50%. Higher therefore signals a less toxic substance.

Regarding `COc1cccc2c1C(=O)c1c(O)c3c(c(O)c1C2=O)C[C@@](O)(C(=O)CO)C[C@@H]3O[C@H]1C[C@H](N)[C@H](O)[C@H](C)O1` [DOXORUBICIN], the IC50 in data set [1] came out at 0.96 µM; in data set [2], 0.74 µM; in data set [3] it was 7.31 µM; in [4] it was 0.98 µM; in [5] it was 1.48 µM.
Regarding `CCC/C=C/CC1CC(O)[C@@H](O)[C@@H]2/C(C)=C/[C@H]3C=C[C@H]4O[C@H]4[C@@H]3/C(C)=C/C=C\[C@@H]2C(=O)N1` (some centres not stated), the Activity entry is “Dose-dependent effect” with Caco-2 [6]; “Dose-dependent effect” with HCT-116 [7]; “tde” in the data set with HCT-116 [8]; “Dose-dependent effect” in the data set with BGC832 [9]; “tde” with NCI-H460 [11]; “Dose-dependent effect” in the data set with HepG2 [12]. The Activity result in the data set with NCI-H460 [13] was “Dose-dependent effect”; in the data set with Caco-2 [14], “tde”; in the data set with BGC832 [15], “tde”; with HepG2 [16], “tde”. Also, the result in the data set with Staphylococcus aureus, with Candida albicans, in the data set with Escherichia coli and in the data set with Aspergillus niger was inactive. Further, the IC50 is 15 µM with HepG2 [10]; 15 µM in data set [1]; 8.03 µM in data set [2] (read-out: IC50); 46.5 µM in data set [3]; 3.76 µM in data set [4]; 13.1 µM in [5]. In the data set on Bacillus subtilis, this molecule returned an MIC of 43.9 µg/mL (≈ 99.9 µM).
In data set [17], `CCCCCCC1CC(=O)CCCC(O)CC(=O)C2=C(O)C(OC3CC(OC)C(O)C(C)O3)CC2\C=C(C)/C=C/C=C/C(=O)N1` (configuration not stated) yielded an LD50 of more than 100 mg/kg.

The values above are taken from ChEMBL document CHEMBL3779773, “A unique macrolactam derivative via a [4+6]-cycloaddition from Streptomyces niveus” (Bioorg Med Chem Lett, 2016).
